US20170105986A1, “Topical Formulation to Enhance Genital Sensation and Function” (priority 2014, published 2017)

Test system: genital area of the patient
Assay: Short term effect of the topical formulation applied to the genital area, as reported by users
Assay type: in vivo, human
Details: for functionality as component of the topical formulation: forms of coQ10 added to the formulation; for somewhat improved sexual function continuing after use: middle-aged male, component of the formula
Excerpt: The following examples are used to show the short term effect of the topical formulation when applied to the genital area of the patient.

| SMILES | functionality as component of the topical formulation | period for which the effects of the topical formulation are prolonged following administration (ATP included in second core composition) | somewhat improved sexual function continuing after use |
| --- | --- | --- | --- |
| COC1=C(OC)C(=O)C(C/C=C(\C)CC/C=C(\C)CC/C=C(\C)CC/C=C(\C)CC/C=C(\C)CC/C=C(\C)CC/C=C(\C)CC/C=C(\C)CC/C=C(\C)CCC=C(C)C)=C(C)C1=O [ubiquinone, reference compound] | seems not functional |  |  |
| COc1c(O)c(C)c(C/C=C(\C)CC/C=C(\C)CC/C=C(\C)CC/C=C(\C)CC/C=C(\C)CC/C=C(\C)CC/C=C(\C)CC/C=C(\C)CC/C=C(\C)CCC=C(C)C)c(O)c1OC [ubiquinol, reference compound] | seems not functional |  |  |
| Nc1ncnc2c1ncn2[C@@H]1O[C@H](COP(=O)(O)OP(=O)(O)OP(=O)(O)O)[C@@H](O)[C@H]1O [ATP, adenosine triphosphate] |  | ~12 h | about 10 hours |
| NC(=O)c1ccc[n+]([C@@H]2O[C@H](CO)[C@@H](O)[C@H]2O)c1 [nicotinamide ribose, nicotinamide riboside] |  |  | about 10 hours |
